This is an account of results in patent US11945812B2, “Annulated 2-amino-3-cyano thiophenes and derivatives for the treatment of cancer” (Boehringer Ingelheim International GmbH, priority 2020, dated 2024).

T1 sequence (P01116 1-169 isoform P01116-2 G12C/C51S/C80L/C118S): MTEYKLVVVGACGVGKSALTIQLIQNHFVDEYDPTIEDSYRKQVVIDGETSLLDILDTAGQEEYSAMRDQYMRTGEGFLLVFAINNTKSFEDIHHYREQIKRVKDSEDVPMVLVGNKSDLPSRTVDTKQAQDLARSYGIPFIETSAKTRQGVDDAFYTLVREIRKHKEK

Tested on in the first series: not listed separately
As to the kind of experiment: Plasma protein binding (equilibrium dialysis), mouse plasma. It counts as in vitro ADME. The note with it: read-out: PPB mouse fu. The procedure:
(§1) Plasma Protein Binding (PPB)
(§2) Binding of test compound to plasma was determined using equilibrium dialysis (ED) and quantitative mass spectrometry interfaced with liquid chromatography (LC-MS). In brief, ED was performed with dialysis devices consisting of two chambers separated by a semipermeable membrane with a molecular weight cut-off of 5-10 kg/mol. One chamber was filled with commercially sourced plasma (mouse and human plasma, respectively) or serum (10% FCS in PBS) containing 1-10 μmol/L test compound and the other chamber was filled with phosphate-buffer saline (PBS) with or without dextran. The dialysis chamber was incubated for 3-5 hours at 37° C. After incubation, protein was precipitated from aliquots of each chamber and the concentration of test compound in the supernatant of the plasma-containing compartment (cplasma) and of the buffer-containing compartment (Cbuffer) was determined by LC-MS. The fraction of unbound test compound (not bound to plasma) (fu) was calculated according to the following equation: […]
A general note: In equilibrium dialysis only unbound substance equilibrates across the membrane.
As to `C=CC(=O)N1CCC(Oc2cc(N3CCN(C)C[C@@H]3C)nc(-c3cc(C4(C)CCCc5sc(N)c(C#N)c54)no3)n2)CC1` (some centres unmarked) [Ic-7], the fraction unbound came out at 0.001.
Consider `C=C(F)C(=O)N1[C@@H](C)CN(c2cc(O[C@@H](C)[C@@H]3CCCN3C)nc(-c3cc([C@@]4(C)CCCc5sc(N)c(C#N)c54)no3)n2)C[C@@H]1C` [Ic-8], for which the fraction unbound was 0.003.
For `COC/C=C/C(=O)N1CCN(c2cc(O[C@@H](C)[C@@H]3CCCN3C)nc(-c3cc(C4(C)CCCc5sc(N)c(C#N)c54)no3)n2)CC1` (some centres unmarked) [Ic-9], the fraction unbound amounted to 0.008.
Still for that read-out and setting: the figure for `C=CC(=O)N1CCN(c2cc(O[C@@H](C)[C@@H]3CCCN3C)nc(-c3cc([C@@]4(C)CCCc5sc(N)c(C#N)c54)sn3)n2)CC1` [Id-1] is 0.021; for `C=CC(=O)N1[C@H](C)CN(c2cc(O[C@@H](C)[C@@H]3CCCN3C)nc(-c3cc([C@@]4(C)CCCc5sc(N)c(C#N)c54)sn3)n2)C[C@@H]1C` [Id-2] it is 0.003; for `C=CC(=O)N1[C@@H](C)CN(c2cc(O[C@@H](C)[C@@H]3CCCN3C)nc(-c3cc([C@@]4(C)CCCc5sc(N)c(C#N)c54)sn3)n2)C[C@@H]1C` [Id-4] it is 0.005.
Consider `C=CC(=O)N1CCN(c2cc(O[C@@H](C)[C@@H]3CCCN3C)nc(-c3cc([C@@]4(C)CCCc5sc(N)c(C#N)c54)sn3)n2)CC12CC2` [Id-5], for which the fraction unbound stood at 0.003.
In the case of `C=CC(=O)N1CCC(Oc2cc(O[C@@H](C)[C@@H]3CCCN3C)nc(-c3cc([C@@]4(C)CCCc5sc(N)c(C#N)c54)sn3)n2)CC1` [Id-6], the fraction unbound was found to be 0.003.

A further series addresses T1, KRAS G12C::SOS1 protein-protein interaction (Homo sapiens, UniProt P01116, C118S/C51S/C80L/G12C).
T1 construct: His6 (N); host or cells: E. coli
In words: KRAS::SOS1 AlphaScreen binding assay. Conditions: KRAS G12C::SOS1 AlphaScreen. An excerpt:
KRAS::SOS1 AlphaScreen Binding Assay
Reagents: • GST-tagged SOS1 (564_1049_GST_TEV_ECO) produced in-house • GST-TEV-SOS1 (564-1049) is purchased from Viva Biotech Ltd. • The expression construct of KRAS G12C (amino acids 1-169 of reference sequence P01116-2 (uniprot), with additional mutations: C51S, C80L, and C118S) containing a C-terminal avi-tag was obtained by gene synthesis (GeneArt, Thermo Fisher) in donor vector (pDONR-221) and transferred by recombinant cloning into pDEST17 vector bearing an N-terminal His6-tag. The protein was expressed in E. coli and the purified protein was biotinylated with the E. coli biotin ligase (BirA) before usage. • GDP (Sigma Cat No G7127) • AlphaLISA Glutathione Acceptor Beads (PerkinElmer, Cat No AL109) • AlphaScreen Streptavidin Donor Beads (PerkinElmer Cat No 6760002) • Assay plates: Proxiplate-384 PLUS, white (PerkinElmer, Cat No 6008289)
Assay Buffer: • 1×PBS • 0.1% BSA • 0.05% Tween 20
7.5 nM (final assay concentration) KRAS G12C, 10 μM (final assay concentration) GDP and 5 nM (final assay concentration) GST-SOS1 are mixed in assay buffer prior to use and kept at room temperature.
AlphaLISA Glutathione Acceptor Beads and AlphaScreen Streptavidin Donor Beads are mixed in assay buffer at a concentration of 10 μg/mL (final assay concentration) each prior to use and kept at room temperature.
Compounds are diluted to a final start concentration of 100 μM and are tested in duplicate. Assay-ready plates (ARPs) are generated using an Access Labcyte Workstation with a Labcyte Echo 550 or 555 accoustic dispenser. For compound a start concentration of 100 μM, 150 nL of compound solution is transferred per well in 11 concentrations in duplicate with serial 1:5 dilutions.
The assay is run using a fully automated robotic system in a darkened room below 100 Lux. 10 μL of KRAS::SOS1 GDP mix is added into columns 1-24 to the 150 nL of compound solution (final dilution in the assay 1:100, final DMSO concentration 1%).
After 30 minutes incubation time 5 μL of bead mix is added into columns 1-23. Plates are kept at room temperature in a darkened incubator. After further 60 minutes incubation, the signal is measured using a PerkinElmer Envision HTS Multilabel Reader using the AlphaScreen specifications from PerkinElmer. Each plate contains the following controls: • diluted DMSO+KRAS::SOS1 GDP mix+bead mix • diluted DMSO+KRAS::SOS1 GDP mix
IC50 values are calculated and analyzed using a 4 parametric logistic model.
Tables of example compounds disclosed herein contain IC50 values determined using the above assay.
Background: Alpha assays give light when donor and acceptor beads are brought close together.
For orientation: IC50 means the concentration that gives 50% inhibition. A higher IC50 goes with lower potency. Compound `C=CC(=O)N1CCN(c2cc(O[C@@H](C)[C@@H]3CCCN3C)nc(-c3cc([C@@]4(C)CCCc5sc(N)c(C#N)c54)no3)n2)CC12CC2` [Ic-3] yielded an IC50 of 3 nM.
`C=CC(=O)N1CCC(Oc2cc(N3CCN(C)C[C@@H]3C)nc(-c3cc(C4(C)CCCc5sc(N)c(C#N)c54)no3)n2)CC1` (some centres unmarked) [Ic-7] returned an IC50 of 44 nM.
Still for that read-out and setting: the figure for `C=C(F)C(=O)N1[C@@H](C)CN(c2cc(O[C@@H](C)[C@@H]3CCCN3C)nc(-c3cc([C@@]4(C)CCCc5sc(N)c(C#N)c54)no3)n2)C[C@@H]1C` [Ic-8] is 41 nM; for `COC/C=C/C(=O)N1CCN(c2cc(O[C@@H](C)[C@@H]3CCCN3C)nc(-c3cc(C4(C)CCCc5sc(N)c(C#N)c54)no3)n2)CC1` (some centres unmarked) [Ic-9] it is 29 nM.
Regarding `C=CC(=O)N1CCN(c2cc(O[C@@H](C)[C@@H]3CCCN3C)nc(-c3cc([C@@]4(C)CCCc5sc(N)c(C#N)c54)sn3)n2)CC1` [Id-1], the IC50 is 1.6 nM. This IC50 lies about 18-fold lower than the previous one.
The same measure, in the same setting: as for `C=CC(=O)N1[C@H](C)CN(c2cc(O[C@@H](C)[C@@H]3CCCN3C)nc(-c3cc([C@@]4(C)CCCc5sc(N)c(C#N)c54)sn3)n2)C[C@@H]1C` [Id-2], the figure is 1.6 nM.
The compound `C=CC(=O)N1[C@@H](C)CN(c2cc(O[C@@H](C)[C@@H]3CCCN3C)nc(-c3cc([C@@]4(C)CCCc5sc(N)c(C#N)c54)sn3)n2)C[C@@H]1C` [Id-4] returned a 50% inhibitory concentration (IC50) of 1.7 nM.
As to `C=CC(=O)N1CCN(c2cc(O[C@@H](C)[C@@H]3CCCN3C)nc(-c3cc([C@@]4(C)CCCc5sc(N)c(C#N)c54)sn3)n2)CC12CC2` [Id-5], the IC50 worked out at 1.7 nM. That is a single-digit nanomolar value.
Turning to `C=CC(=O)N1CCC(Oc2cc(O[C@@H](C)[C@@H]3CCCN3C)nc(-c3cc([C@@]4(C)CCCc5sc(N)c(C#N)c54)sn3)n2)CC1` [Id-6], the IC50 came to 1.6 nM.

Tested on in the next series: not listed separately
As to the kind of experiment: Plasma protein binding (equilibrium dialysis), serum 10% FCS in PBS. It counts as in vitro ADME. Conditions: bovine, 10% FCS in PBS (serum), read-out: PPB 10% FCS fu. As for the experimental part: as §1, §2
`C=CC(=O)N1CCN(c2cc(O[C@@H](C)[C@@H]3CCCN3C)nc(-c3cc([C@@]4(C)CCCc5sc(N)c(C#N)c54)no3)n2)CC12CC2` [Ic-3]: the fraction unbound stood at 0.109.
On to `C=CC(=O)N1CCC(Oc2cc(N3CCN(C)C[C@@H]3C)nc(-c3cc(C4(C)CCCc5sc(N)c(C#N)c54)no3)n2)CC1` (some centres unmarked) [Ic-7], for which the fraction unbound was determined as 0.252.
On to `C=C(F)C(=O)N1[C@@H](C)CN(c2cc(O[C@@H](C)[C@@H]3CCCN3C)nc(-c3cc([C@@]4(C)CCCc5sc(N)c(C#N)c54)no3)n2)C[C@@H]1C` [Ic-8], for which the fraction unbound turned out to be 0.078.
For the compound `COC/C=C/C(=O)N1CCN(c2cc(O[C@@H](C)[C@@H]3CCCN3C)nc(-c3cc(C4(C)CCCc5sc(N)c(C#N)c54)no3)n2)CC1` (some centres unmarked) [Ic-9], the fraction unbound came to 0.259.
With `C=CC(=O)N1CCN(c2cc(O[C@@H](C)[C@@H]3CCCN3C)nc(-c3cc([C@@]4(C)CCCc5sc(N)c(C#N)c54)sn3)n2)CC1` [Id-1], the fraction unbound stood at 0.476.
Consider `C=CC(=O)N1[C@H](C)CN(c2cc(O[C@@H](C)[C@@H]3CCCN3C)nc(-c3cc([C@@]4(C)CCCc5sc(N)c(C#N)c54)sn3)n2)C[C@@H]1C` [Id-2], for which the fraction unbound worked out at 0.434.
Consider `C=CC(=O)N1[C@@H](C)CN(c2cc(O[C@@H](C)[C@@H]3CCCN3C)nc(-c3cc([C@@]4(C)CCCc5sc(N)c(C#N)c54)sn3)n2)C[C@@H]1C` [Id-4], for which the fraction unbound turned out to be 0.371.
On to `C=CC(=O)N1CCN(c2cc(O[C@@H](C)[C@@H]3CCCN3C)nc(-c3cc([C@@]4(C)CCCc5sc(N)c(C#N)c54)sn3)n2)CC12CC2` [Id-5], for which the fraction unbound was 0.338.
For `C=CC(=O)N1CCC(Oc2cc(O[C@@H](C)[C@@H]3CCCN3C)nc(-c3cc([C@@]4(C)CCCc5sc(N)c(C#N)c54)sn3)n2)CC1` [Id-6], the fraction unbound was determined as 0.521.
